Laboratory results: patent US8772344B2, “Pharmaceutical composition for inhibiting osteoclast growth” (National Defense Medical Center, priority 2011, dated 2014)

How the values were obtained:
[1] = system: osteoclasts from bone marrow-derived macrophages; experiment: Osteoclast formation from bone marrow-derived macrophages (M-CSF and RANKL), TRAP staining and count of multinucleated cells; assay type: cell-based, DBA/1J mice; conditions: for effect for inhibiting osteoclast growth: comparison among the nine compounds of table 1, cell system not stated; for inhibiting osteoclasts grown (observation of plates, FIG. 2A) / numbers of osteoclasts as a function of concentration (FIG. 3): bone marrow-derived macrophages; for inhibiting osteoclasts grown (observation of plates, FIG. 2A): 10 nM, 15 nM and 20 nM, effect positive proportional to the concentration; for numbers of osteoclasts as a function of concentration (FIG. 3): compared to the contrast containing M-CSF and RANKL only
Protocol: Bone marrow cells (BMCs) from DBA/1J mice were obtained for osteoclast progenitor cell preparation. The BMCs were isolated from the tibias and femurs of 8-wk-old male mice by flushing the bone marrow cavity with PBS. The cells were then centrifuged at 1000 g for 10 min and exposed to 5 ml of hypotonic ACK buffer ([…], and 0.1 mM EDTA, (pH 7.4)) at room temperature for […] to remove the red blood cells. They were incubated with α-MEM (Gibco BRL) containing penicillin (100 U/ml), streptomycin (100 μg/ml) and 10% heat-inactivated FBS for 12 hr to separate the floating and adherent cells. The floating cells were collected, suspended in α-MEM, counted, seeded onto a 96-well plate at 4×10^4 cells/well, and cultured in α-MEM in the presence of 30 ng/ml M-CSF for 3 days to form macrophage-like osteoclast precursor cells. […] On day 3, the medium was replaced with fresh medium containing M-CSF, RANKL and P. amboinicus.
(§1) TRAP staining was performed as described Han et al. 2007. Briefly, cells were washed with PBS and fixed with 3.7% formaldehyde for 30 min. After washing with PBS, cells were incubated at 37 in a humid and light-protected incubator for 1 hr in the reaction mixture of the Leukocyte Acid Phosphatase Assay kit (Cat. 387, Sigma), as directed by the manufacturer. Cells were washed three times with distilled water and TRAP-positive multinucleated cells containing five or more nuclei were counted under a light microscope. To measure TRAP activity, cells were lysed in 150λ of 0.2% Triton X-100 in PBS, RT for 15 min and then incubated with 100λ of phosphatase substrate solution kit (Cat. CS0740, Sigma) at 37 for 30 min. After incubation, the enzyme reaction mixture was transferred to another plate and the reaction was stopped with 100λ of 0.5N NaOH. Absorbance was measured at 405 nm in a ELISA plate reader, and activity calculated from standard curve generated using p-nitrophenol standards. TRAP activity was normalized to total protein (determined by the BCA assay (Cat. 23225, PIERCE)) as well as to total number of nuclei counted after TRAP and hematoxylin staining of a second, identical 96-well plate run in conjunction with that used for the TRAP assay.
(§2) Please refer to FIG. 1A and FIG. 1B, bone marrow-derived macrophages were plated in a plate A with M-CSF (FIG. 1A) and a plate B with M-CSF and RANKL (FIG. 1B) and murine RAW264.7 were plated in a plate C (FIG. 1C) and a plate D with RANKL (FIG. 1D) separately. After a period, the growth of the osteoclast in the plate A (plate C) is different from that in the plate B (plate D). According to the abovementioned, M-CSF and RANKL secreted by the osteoblasts will promote the growth of the osteoclast. Therefore, the growth of the osteoclast cannot be seen in the plate A. In the contrast, there are a lot of osteoclasts grown in the plate B.

murine RAW264.7 = experiment: Osteoclast differentiation of murine RAW264.7 cells (RANKL), TRAP staining and count of multinucleated cells; assay type: cell-based; conditions: for inhibiting osteoclasts grown (observation of plates, FIG. 2B): 10 nM, 15 nM and 20 nM, effect positive proportional to the concentration; for numbers of osteoclasts as a function of concentration (FIG. 4): compared to the contrast containing RANKL only
Protocol: Murine RAW264.7 (murine leukemic monocyte/macrophage), a type of osteoclast progenitor cells. The murine monocyte/macrophage cell line RAW264.7 was cultured with DMEM (Gibco BRL) containing 10% heat-inactivated FBS, penicillin (100 U/ml), and streptomycin (100 μg/ml). All cells were grown in a humidified atmosphere containing 5% CO^2 at 37. To induce osteoclast differentiation, RAW264.7 cells were suspended in α-MEM containing 10% FBS, 2 mM […], 100 U/ml penicillin, and 100 μg/ml streptomycin, seeded at 10^4 cells/dish in a 96-well plate and cultured with 100 ng/ml soluble RANKL for 5 days. The medium was changed on day 3.
as §1, §2

Compound | effect for inhibiting osteoclast growth [1] | inhibiting osteoclasts grown (observation of plates, FIG. 2A) [1] | numbers of osteoclasts as a function of concentration (FIG. 3) [1] | inhibiting osteoclasts grown (observation of plates, FIG. 2B) (murine RAW264.7) | numbers of osteoclasts as a function of concentration (FIG. 4) (murine RAW264.7)
O=C(Nc1cccc(C(F)(F)F)c1)c1ccccc1O [Compound 1, 2-hydroxy-N-[3-(trifluoromethyl)phenyl]benzamide] | most significant effect for inhibiting osteoclast growth |  |  |  | 
C#Cc1cccc(NC(=O)c2ccccc2O)c1 [Compound 3, N-(3-ethynylphenyl)-2-hydroxybenzamide] | most significant effect for inhibiting osteoclast growth | have the effect for inhibiting osteoclasts grown | can inhibit osteoclasts grown | have the effect for inhibiting osteoclasts grown | can inhibit osteoclasts grown
O=C(Nc1ccc(F)c(F)c1)c1ccccc1O [Compound 5, N-(3,4-difluorophenyl)-2-hydroxybenzamide] | most significant effect for inhibiting osteoclast growth | have the effect for inhibiting osteoclasts grown | can inhibit osteoclasts grown | have the effect for inhibiting osteoclasts grown | can inhibit osteoclasts grown
O=C(Nc1ccc(Cl)cc1F)c1ccccc1O [Compound 6, N-(4-chloro-2-fluorophenyl)-2-hydroxybenzamide] | most significant effect for inhibiting osteoclast growth | have the effect for inhibiting osteoclasts grown | can inhibit osteoclasts grown | have the effect for inhibiting osteoclasts grown | can inhibit osteoclasts grown
